The source of these data is paper PMC4385830, “Group I Paks as therapeutic targets in NF2-deficient meningioma” (Oncotarget, 2015).

Common to all, as to assay: Kinase selectivity, Z'-LYTE
Holding throughout (type): biochemical

The target of one experiment is T1, PDK1 Direct (Homo sapiens, UniProt O15530).
T1 construct: purchased Invitrogen (Life Technologies) SelectScreen Z'-LYTE
T1 sequence (O15530 1-556): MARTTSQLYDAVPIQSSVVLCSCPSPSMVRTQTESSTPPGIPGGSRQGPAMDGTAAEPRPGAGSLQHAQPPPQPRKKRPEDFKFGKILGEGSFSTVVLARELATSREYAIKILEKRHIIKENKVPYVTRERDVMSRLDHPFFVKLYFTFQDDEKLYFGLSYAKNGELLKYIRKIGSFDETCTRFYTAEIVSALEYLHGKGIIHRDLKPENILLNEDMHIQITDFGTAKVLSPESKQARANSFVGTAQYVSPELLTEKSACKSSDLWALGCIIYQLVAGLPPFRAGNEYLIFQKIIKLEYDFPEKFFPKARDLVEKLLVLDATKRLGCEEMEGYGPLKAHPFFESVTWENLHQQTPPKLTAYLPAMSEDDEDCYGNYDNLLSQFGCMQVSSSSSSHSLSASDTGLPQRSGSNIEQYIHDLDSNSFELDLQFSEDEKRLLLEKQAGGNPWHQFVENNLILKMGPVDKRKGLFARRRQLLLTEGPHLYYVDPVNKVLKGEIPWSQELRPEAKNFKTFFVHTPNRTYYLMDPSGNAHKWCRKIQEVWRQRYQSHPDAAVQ
A digest of the protocol: (§1)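 Activity is measured with recombinant enzyme and a peptide whose phosphorylation state governs protease sensitivity; fluorescence distinguishes cleaved from intact peptide.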

The target in a further experiment is T2, EGFR (ErbB1) (Homo sapiens, UniProt P00533).
T2 construct: purchased Invitrogen (Life Technologies) SelectScreen Z'-LYTE
Summed up:
as §1

A further experiment deals with T3, MAPK1 (ERK2) (Homo sapiens, UniProt P28482).
T3 construct: purchased Invitrogen (Life Technologies) SelectScreen Z'-LYTE
A digest of the protocol: as §1

Another experiment has as its target T4, TYK2 (Homo sapiens, UniProt P29597).
T4 construct: purchased Invitrogen (Life Technologies) SelectScreen Z'-LYTE
Summed up: as §1

A further experiment has as its target T5, YES1 (Homo sapiens, UniProt P07947).
T5 construct: purchased Invitrogen (Life Technologies) SelectScreen Z'-LYTE
Summed up: as §1

The target of a further experiment is T6, FLT3 (Homo sapiens, UniProt P36888).
T6 construct: purchased Invitrogen (Life Technologies) SelectScreen Z'-LYTE
T6 sequence (P36888 27-993): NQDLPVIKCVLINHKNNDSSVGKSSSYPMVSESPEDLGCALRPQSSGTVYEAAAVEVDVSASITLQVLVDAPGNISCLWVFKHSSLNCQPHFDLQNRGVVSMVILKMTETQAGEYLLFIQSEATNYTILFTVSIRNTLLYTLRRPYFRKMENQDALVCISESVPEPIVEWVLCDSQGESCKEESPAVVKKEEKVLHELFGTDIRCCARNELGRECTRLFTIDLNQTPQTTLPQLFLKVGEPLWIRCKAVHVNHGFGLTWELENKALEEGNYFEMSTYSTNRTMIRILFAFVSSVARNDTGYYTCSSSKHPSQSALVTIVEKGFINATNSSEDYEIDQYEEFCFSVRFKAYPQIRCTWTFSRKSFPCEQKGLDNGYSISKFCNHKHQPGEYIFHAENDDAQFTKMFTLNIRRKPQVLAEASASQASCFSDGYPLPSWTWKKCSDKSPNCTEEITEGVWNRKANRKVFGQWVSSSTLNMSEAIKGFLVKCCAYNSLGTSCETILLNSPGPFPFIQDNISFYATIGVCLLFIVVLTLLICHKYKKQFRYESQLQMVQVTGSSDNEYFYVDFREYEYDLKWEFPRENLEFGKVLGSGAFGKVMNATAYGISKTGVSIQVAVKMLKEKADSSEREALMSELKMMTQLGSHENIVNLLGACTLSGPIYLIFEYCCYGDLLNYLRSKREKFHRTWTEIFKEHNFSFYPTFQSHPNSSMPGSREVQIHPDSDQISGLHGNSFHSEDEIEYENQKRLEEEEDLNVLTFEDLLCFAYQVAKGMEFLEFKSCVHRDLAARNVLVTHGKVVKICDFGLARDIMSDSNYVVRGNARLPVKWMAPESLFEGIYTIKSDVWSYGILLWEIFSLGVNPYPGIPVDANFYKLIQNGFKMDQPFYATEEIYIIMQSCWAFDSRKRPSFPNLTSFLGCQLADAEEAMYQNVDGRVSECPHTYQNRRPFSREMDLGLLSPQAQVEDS
Summed up:
as §1

Another experiment addresses T7, PDGFRA (PDGFR alpha) (Homo sapiens, UniProt P16234).
T7 construct: purchased Invitrogen (Life Technologies) SelectScreen Z'-LYTE
Summed up:
as §1

A further experiment has as its target T8, IGF1R (Homo sapiens, UniProt P08069).
T8 construct: purchased Invitrogen (Life Technologies) SelectScreen Z'-LYTE
Summed up: as §1

In a further experiment the target is T9, JAK1 (Homo sapiens, UniProt P23458).
T9 construct: purchased Invitrogen (Life Technologies) SelectScreen Z'-LYTE
A digest of the protocol:
as §1

The next experiment has as its target T10, MAPK8 (JNK1) (Homo sapiens, UniProt P45983).
T10 construct: purchased Invitrogen (Life Technologies) SelectScreen Z'-LYTE
A digest of the protocol: as §1

Another experiment concerns the target T11, RP88KA8 (RSK2) (Homo sapiens, UniProt P51812).
T11 construct: purchased Invitrogen (Life Technologies) SelectScreen Z'-LYTE
A digest of the protocol: as §1

The target of experiment [1] is T12, P1K3CA/PIK3R1 (p110 alpha) (Homo sapiens, UniProt P42336).
T12 construct: purchased Invitrogen (Life Technologies) SelectScreen Z'-LYTE
Summed up:
as §1

For a further experiment, the target named is T13, PAK3 (Homo sapiens, UniProt O75914).
T13 construct: purchased Invitrogen (Life Technologies) SelectScreen Z'-LYTE
Summed up: as §1

Another experiment addresses T14, CSNK1G2 (CK1 gamma 2) (Homo sapiens, UniProt P78368).
T14 construct: purchased Invitrogen (Life Technologies) SelectScreen Z'-LYTE
Summed up: as §1

The target in a further experiment is T15, PIM2 (Homo sapiens, UniProt Q9P1W9).
T15 construct: purchased Invitrogen (Life Technologies) SelectScreen Z'-LYTE
A digest of the protocol:
as §1

A further experiment concerns the target T16, KDR (VEGFR2) (Homo sapiens, UniProt P35968).
T16 construct: purchased Invitrogen (Life Technologies) SelectScreen Z'-LYTE
Summed up:
as §1

Experiment [2] addresses T17, MAPK14 (p38 alpha) Direct (Homo sapiens, UniProt Q16539).
T17 construct: purchased Invitrogen (Life Technologies) SelectScreen Z'-LYTE
A digest of the protocol: as §1

The target of the next experiment is T18, ERBB4 (HER4) (Homo sapiens, UniProt Q15303).
T18 construct: purchased Invitrogen (Life Technologies) SelectScreen Z'-LYTE
A digest of the protocol: as §1

The structures appear in SMILES notation.

T18 sequence (Q15303 26-1308): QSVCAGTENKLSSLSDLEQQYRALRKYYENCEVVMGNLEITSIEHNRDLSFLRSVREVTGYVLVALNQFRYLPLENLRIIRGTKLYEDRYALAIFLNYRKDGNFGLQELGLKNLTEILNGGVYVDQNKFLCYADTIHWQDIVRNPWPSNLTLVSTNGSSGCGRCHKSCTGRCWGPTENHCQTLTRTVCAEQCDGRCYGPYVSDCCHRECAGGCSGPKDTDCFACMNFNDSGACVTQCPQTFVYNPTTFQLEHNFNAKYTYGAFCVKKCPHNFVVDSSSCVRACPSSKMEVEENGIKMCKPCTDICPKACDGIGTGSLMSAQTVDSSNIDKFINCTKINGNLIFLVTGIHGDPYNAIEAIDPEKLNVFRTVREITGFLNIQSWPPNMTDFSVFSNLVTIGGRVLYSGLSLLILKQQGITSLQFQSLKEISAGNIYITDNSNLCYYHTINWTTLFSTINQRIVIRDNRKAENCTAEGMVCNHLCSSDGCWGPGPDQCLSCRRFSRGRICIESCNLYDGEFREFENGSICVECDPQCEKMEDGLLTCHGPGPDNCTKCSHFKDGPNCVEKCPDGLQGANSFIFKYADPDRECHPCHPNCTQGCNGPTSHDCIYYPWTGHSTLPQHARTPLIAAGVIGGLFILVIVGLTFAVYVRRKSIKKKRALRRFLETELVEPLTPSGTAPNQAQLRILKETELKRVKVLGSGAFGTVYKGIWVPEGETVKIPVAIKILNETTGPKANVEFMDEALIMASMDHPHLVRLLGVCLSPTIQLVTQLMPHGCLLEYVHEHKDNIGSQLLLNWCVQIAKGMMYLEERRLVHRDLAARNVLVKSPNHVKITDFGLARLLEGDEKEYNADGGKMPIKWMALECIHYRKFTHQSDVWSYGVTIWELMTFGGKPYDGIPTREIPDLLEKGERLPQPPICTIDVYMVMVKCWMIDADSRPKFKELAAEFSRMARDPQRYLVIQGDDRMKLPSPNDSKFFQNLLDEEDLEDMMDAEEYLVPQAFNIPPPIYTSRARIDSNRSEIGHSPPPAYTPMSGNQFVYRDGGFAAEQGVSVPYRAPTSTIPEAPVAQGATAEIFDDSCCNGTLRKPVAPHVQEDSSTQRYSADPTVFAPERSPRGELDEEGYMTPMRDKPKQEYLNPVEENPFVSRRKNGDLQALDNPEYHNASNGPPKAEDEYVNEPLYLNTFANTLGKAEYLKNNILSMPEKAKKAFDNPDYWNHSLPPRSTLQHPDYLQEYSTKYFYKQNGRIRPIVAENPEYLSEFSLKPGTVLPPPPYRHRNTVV
T8 sequence (P08069 31-1367): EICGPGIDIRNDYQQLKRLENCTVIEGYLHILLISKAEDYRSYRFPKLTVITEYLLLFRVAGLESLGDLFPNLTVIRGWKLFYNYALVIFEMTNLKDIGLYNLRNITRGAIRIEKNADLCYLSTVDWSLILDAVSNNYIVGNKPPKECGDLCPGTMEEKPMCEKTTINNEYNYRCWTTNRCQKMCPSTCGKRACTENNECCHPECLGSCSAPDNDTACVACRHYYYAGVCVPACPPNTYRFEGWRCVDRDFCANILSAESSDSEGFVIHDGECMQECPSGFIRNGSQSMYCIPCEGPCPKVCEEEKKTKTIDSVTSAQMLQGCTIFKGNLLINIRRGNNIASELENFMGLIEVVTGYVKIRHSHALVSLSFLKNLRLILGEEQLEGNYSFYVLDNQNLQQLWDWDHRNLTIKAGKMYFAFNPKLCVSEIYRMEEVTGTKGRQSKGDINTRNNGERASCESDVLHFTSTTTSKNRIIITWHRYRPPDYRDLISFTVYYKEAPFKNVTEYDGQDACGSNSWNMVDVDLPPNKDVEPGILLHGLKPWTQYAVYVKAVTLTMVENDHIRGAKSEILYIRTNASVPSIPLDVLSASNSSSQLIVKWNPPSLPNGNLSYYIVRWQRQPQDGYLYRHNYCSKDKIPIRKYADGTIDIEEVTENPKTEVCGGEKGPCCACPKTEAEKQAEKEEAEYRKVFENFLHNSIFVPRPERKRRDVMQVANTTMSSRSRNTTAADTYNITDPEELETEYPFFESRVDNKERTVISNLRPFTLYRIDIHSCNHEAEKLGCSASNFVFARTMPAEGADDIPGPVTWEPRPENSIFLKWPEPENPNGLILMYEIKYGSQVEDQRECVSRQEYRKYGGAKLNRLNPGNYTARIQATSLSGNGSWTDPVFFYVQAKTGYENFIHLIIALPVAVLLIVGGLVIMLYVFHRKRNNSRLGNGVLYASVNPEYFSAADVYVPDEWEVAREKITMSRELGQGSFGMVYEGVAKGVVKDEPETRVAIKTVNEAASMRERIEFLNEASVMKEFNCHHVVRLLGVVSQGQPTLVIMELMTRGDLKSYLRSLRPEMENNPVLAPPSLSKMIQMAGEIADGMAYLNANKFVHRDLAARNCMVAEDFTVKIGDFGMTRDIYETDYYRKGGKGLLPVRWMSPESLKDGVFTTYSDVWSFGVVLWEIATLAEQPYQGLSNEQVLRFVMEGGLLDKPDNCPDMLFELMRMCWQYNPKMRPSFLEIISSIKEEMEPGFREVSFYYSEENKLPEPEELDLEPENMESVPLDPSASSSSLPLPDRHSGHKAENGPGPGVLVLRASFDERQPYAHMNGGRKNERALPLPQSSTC
T16 sequence (P35968 20-1356): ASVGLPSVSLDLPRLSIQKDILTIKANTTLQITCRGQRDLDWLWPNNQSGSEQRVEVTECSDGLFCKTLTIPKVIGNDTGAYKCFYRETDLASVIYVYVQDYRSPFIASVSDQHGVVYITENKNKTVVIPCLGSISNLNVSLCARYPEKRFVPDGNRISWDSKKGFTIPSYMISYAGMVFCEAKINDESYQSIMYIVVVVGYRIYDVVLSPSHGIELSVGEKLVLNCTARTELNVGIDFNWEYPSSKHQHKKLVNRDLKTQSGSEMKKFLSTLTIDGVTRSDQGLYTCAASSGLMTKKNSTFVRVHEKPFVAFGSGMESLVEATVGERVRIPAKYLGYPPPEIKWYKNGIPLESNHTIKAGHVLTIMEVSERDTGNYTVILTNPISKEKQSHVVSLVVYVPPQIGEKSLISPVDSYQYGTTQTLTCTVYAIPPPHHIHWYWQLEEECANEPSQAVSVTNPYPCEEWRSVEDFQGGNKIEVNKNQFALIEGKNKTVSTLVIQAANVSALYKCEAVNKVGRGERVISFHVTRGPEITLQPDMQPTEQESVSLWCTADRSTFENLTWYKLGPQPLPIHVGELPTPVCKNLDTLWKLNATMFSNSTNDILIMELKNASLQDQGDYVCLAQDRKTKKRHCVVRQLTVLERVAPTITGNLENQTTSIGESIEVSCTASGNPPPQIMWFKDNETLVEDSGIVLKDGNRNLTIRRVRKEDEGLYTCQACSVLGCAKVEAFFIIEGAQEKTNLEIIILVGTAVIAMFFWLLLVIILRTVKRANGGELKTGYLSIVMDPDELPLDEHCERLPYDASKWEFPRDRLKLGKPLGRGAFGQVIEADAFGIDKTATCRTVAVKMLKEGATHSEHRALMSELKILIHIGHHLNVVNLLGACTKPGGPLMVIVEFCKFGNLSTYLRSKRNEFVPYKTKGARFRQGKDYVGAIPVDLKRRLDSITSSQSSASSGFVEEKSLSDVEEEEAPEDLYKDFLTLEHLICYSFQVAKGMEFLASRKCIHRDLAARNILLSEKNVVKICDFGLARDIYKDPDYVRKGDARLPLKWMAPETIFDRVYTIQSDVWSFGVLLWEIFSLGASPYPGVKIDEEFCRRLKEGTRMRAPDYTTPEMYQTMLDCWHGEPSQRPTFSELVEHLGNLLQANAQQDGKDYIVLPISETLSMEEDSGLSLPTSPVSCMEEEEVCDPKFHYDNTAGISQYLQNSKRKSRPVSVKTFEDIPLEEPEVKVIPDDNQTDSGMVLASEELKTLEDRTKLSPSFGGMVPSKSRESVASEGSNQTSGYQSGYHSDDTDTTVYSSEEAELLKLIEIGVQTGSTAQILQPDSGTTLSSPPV
T3 sequence (P28482 whole entry): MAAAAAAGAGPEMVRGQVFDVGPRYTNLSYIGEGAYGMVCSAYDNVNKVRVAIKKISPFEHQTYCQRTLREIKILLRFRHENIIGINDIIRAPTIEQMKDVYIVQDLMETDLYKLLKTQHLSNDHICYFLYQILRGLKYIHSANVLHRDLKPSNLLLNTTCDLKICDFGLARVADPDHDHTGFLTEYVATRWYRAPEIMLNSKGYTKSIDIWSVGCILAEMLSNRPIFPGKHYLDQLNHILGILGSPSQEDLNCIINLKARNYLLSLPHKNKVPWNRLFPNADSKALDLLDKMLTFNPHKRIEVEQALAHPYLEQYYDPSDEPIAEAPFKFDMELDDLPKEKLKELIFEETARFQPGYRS
T17 sequence (Q16539 whole entry): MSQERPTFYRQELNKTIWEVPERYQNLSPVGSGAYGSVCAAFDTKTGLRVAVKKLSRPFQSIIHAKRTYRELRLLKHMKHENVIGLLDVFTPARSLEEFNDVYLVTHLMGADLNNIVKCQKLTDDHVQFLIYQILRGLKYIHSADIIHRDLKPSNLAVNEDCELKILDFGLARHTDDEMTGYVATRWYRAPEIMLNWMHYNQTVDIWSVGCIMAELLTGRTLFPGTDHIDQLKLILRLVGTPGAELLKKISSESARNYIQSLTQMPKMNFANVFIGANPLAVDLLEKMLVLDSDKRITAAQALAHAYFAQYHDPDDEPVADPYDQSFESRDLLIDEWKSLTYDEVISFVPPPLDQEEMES
T14 sequence (P78368 whole entry): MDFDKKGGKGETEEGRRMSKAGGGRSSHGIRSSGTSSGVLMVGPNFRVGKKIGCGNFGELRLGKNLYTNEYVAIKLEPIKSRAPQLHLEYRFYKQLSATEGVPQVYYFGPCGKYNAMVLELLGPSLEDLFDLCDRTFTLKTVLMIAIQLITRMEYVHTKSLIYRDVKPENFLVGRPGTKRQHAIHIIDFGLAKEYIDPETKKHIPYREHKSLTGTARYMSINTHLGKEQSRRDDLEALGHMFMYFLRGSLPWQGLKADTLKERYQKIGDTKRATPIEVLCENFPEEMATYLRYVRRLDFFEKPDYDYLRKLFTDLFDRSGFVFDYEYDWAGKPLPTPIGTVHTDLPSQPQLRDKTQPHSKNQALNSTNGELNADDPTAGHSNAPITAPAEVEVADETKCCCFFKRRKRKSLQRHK

Take `CCn1c(=O)c(-c2ccc(-c3noc(C)n3)cc2Cl)cc2cnc(Nc3ccc(C4CCN(C)CC4)cc3)nc21` [Frax716]: the “% inhibition of activity” value at PDK1 Direct is on record as 15%; at EGFR (ErbB1) it was 20%; on MAPK1 (ERK2), 7%; on TYK2, 54%; on YES1 it was 89%; on FLT3, 92%. Further, the “% inhibition of activity” value at PDGFRA (PDGFR alpha) is 95%; on IGF1R it was 23%; at JAK1, 1%; on MAPK8 (JNK1) it was 30%; at RP88KA8 (RSK2) it was 6%; in experiment [1], −1%. The “% inhibition of activity” value is 90% on PAK3; 3% at CSNK1G2 (CK1 gamma 2); 1% on PIM2; 90% at KDR (VEGFR2); 10% in experiment [2]; 77% at ERBB4 (HER4).
In the case of `CCn1c(=O)c(-c2ccc(-c3cncc(C)n3)cc2Cl)cc2cnc(NCCC3CCN(C)CC3)nc21` [Frax1036], the “% inhibition of activity” value on PDK1 Direct is 0%; on EGFR (ErbB1), 2%; on MAPK1 (ERK2), 5%; at TYK2, 6%; on YES1, 18%; on FLT3, 10%. Further, the “% inhibition of activity” value on PDGFRA (PDGFR alpha) was found to be 2%; on IGF1R it was 7%; on JAK1, 1%; on MAPK8 (JNK1) it was 79%; on RP88KA8 (RSK2) it was 11%; in experiment [1], 0%. For the same molecule, the “% inhibition of activity” value amounted to 106% on PAK3; 3% on CSNK1G2 (CK1 gamma 2); 3% at PIM2; 16% at KDR (VEGFR2); 0% in [2]; 0% at ERBB4 (HER4).
For `Cc1nc(Nc2[nH]nc3c2CN(C(=O)N[C@H](CN(C)C)c2ccccc2)C3(C)C)c2sccc2n1` [PF3758309, reference compound], the “% inhibition of activity” value turned out to be 67% at PDK1 Direct; 4% on EGFR (ErbB1); 23% on MAPK1 (ERK2); 14% on TYK2; 86% at YES1; 78% at FLT3. The “% inhibition of activity” value was found to be 2% on PDGFRA (PDGFR alpha); 10% at IGF1R; 2% on JAK1; 9% at MAPK8 (JNK1); 100% at RP88KA8 (RSK2); 0% in experiment [1]. The “% inhibition of activity” value at PAK3 was 100%; on CSNK1G2 (CK1 gamma 2), 9%; at PIM2, 4%; on KDR (VEGFR2), 20%; in experiment [2], 7%; on ERBB4 (HER4), 2%.
